Tests used:
Format in all cases: cell-based
AGS cell strain [1] = experiment: Cell growth test (CCK-8 assay) after transfection of BART miRNA mimics; settings: mimic 10 nM, 72 hours after transfection, relative to scrambled control (=1), n=9
How it was run: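 EBV-negative AGS gastric cells in RPMI1640 with 10% FBS, seeded 1×10^3 cells/well and transfected with synthetic mature BART miRNA mimics (10 nM; dose series 1, 3, 10, 30 nM) via G-fectin. Growth read by CCK-8 after 72 h (or over time), 2 h at 37 °C, absorbance measured.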

AGS cell strain [2] = experiment: Effect on cell cycle (propidium iodide staining, FACS, sub G1); settings: mimic 10 nM, 10 uM 5-FU 24 h after transfection, then 48 hours, relative to scrambled control (=1)
How it was run: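 AGS gastric cells (EBV-negative), 2×10^5 per well, were transfected with synthetic miRNA (10 nM). DNA was stained with propidium iodide, and the cell-cycle-altered fraction was measured by FACS.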

AGS cell strain [3] = experiment: Measurement of apoptosis (Annexin V staining, FACS); settings: for Relative Apoptotic cell: AGS, mimic 10 nM, 10 uM 5-FU 24 h after transfection, then 48 hours, Annexin V, relative to scrambled control (=1), n=9; for effect on cell growth and apoptosis (summary statement): mimics transfected to AGS, tumor cell strain not infected with EBV
How it was run: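 EBV-negative AGS cells (2×10^5/well) were transfected with 10 nM synthetic miRNA. Twenty-four hours later they received 10 uM 5-FU for 48 h at 37 °C. The apoptotic cell ratio was measured by PE Annexin V staining and FACS.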

Row | Substance | Relative Cell Growth (AGS cell strain [1]) | Relative Sub G1 (AGS cell strain [2]) | Relative Apoptotic cell (AGS cell strain [3]) | Relative Sub G1 (AGS cell strain [2]; listed as 6-3p) | Relative Sub G1 (AGS cell strain [2]; listed as 12-5p) | Relative Apoptotic cell (AGS cell strain [3]; listed as 16-3p) | effect on cell growth and apoptosis (summary statement) (AGS cell strain [3]) | Relative Apoptotic cell (AGS cell strain [3]; listed as 18-5p)
1 | BART1-3p: EBV BART miRNA mimic, double stranded RNA; sense SEQ NO: 11, antisense SEQ NO: 12 (sense UAGCACCGCUAUCCACUAUGUC; antisense GACAUAGUGGAUAGCGGUGCUA; chemistry not given here) | 1.201 | 0.7947 | 0.9231 | – | – | – | – | –
2 | BART6-3p: EBV BART miRNA mimic, double stranded RNA; sense SEQ NO: 31, antisense SEQ NO: 32 (sense CGGGGAUCGGACUAGCCUUAGA; antisense UCUAAGGCUAGUCCGAUCCCCG; chemistry not given here) | 0.9101 | 1.24 | 1.018 | increased | – | – | – | –
3 | BART12-5p: EBV BART miRNA mimic, double stranded RNA; sense SEQ NO: 65, antisense SEQ NO: 66 (sense ACCCGCCCAUCACCACCGGAC; antisense GUCCGGUGGUGAUGGGCGGGU; chemistry not given here) | 1.159 | 1.135 | 0.9458 | – | increased | – | – | –
4 | BART7-3p: EBV BART miRNA mimic, double stranded RNA; sense SEQ NO: 43, antisense SEQ NO: 44 (sense CAUCAUAGUCCAGUGUCCAGGG; antisense CCCUGGACACUGGACUAUGAUG; chemistry not given here) | 1.156 | 0.9393 | 1.107 | – | – | – | – | –
5 | BART14-5p: EBV BART miRNA mimic, double stranded RNA; sense SEQ NO: 81, antisense SEQ NO: 82 (sense UACCCUACGCUGCCGAUUUACA; antisense UGUAAAUCGGCAGCGUAGGGUA; chemistry not given here) | 1.408 | 0.9076 | 1.054 | – | – | – | – | –
6 | BART16-3p: EBV BART miRNA mimic, double stranded RNA; sense SEQ NO: 23, antisense SEQ NO: 24 (sense AUCACCACCCUCUAUCCAUAU; antisense AUAUGGAUAGAGGGUGGUGAU; chemistry not given here) | 1.159 | 0.9852 | 1.37 | – | – | significantly higher | inhibit cell growth and promote apoptosis | –
7 | BART18-5p: EBV BART miRNA mimic, double stranded RNA; sense SEQ NO: 37, antisense SEQ NO: 38 (sense UCAAGUUCGCACUUCCUAUACA; antisense UGUAUAGGAAGUGCGAACUUGA; chemistry not given here) | 1.395 | 0.9828 | 1.202 | – | – | – | inhibit cell growth and promote apoptosis | significantly higher
8 | BART11-3p: EBV BART miRNA mimic, double stranded RNA; probably sense SEQ NO: 63, antisense SEQ NO: 64 (printed as BART11-5p) (sense ACGCACACCAGGCUGACUGCC; antisense GGCAGUCAGCCUGGUGUGCGU; chemistry not given here) | 0.9459 | 1.128 | 1.058 | – | – | – | – | –
